In ChEMBL document CHEMBL3045835, “Comparative study of conventional and microwave-assisted synthesis of some Schiff bases and their potential as antimicrobial agents” (2012):
Converted amounts (≈) assume the structure as drawn.

Columns and labels:
Format in all cases: functional
Pseudomonas fluorescens [1] = test: Antibacterial activity against Pseudomonas fluorescens MTCC 2421 after 24 hr by broth dilution method; conditions: MTCC 2421, 24 h
Bacillus pumilus [2] = test: Antibacterial activity against Bacillus pumilus MTCC 1456 after 24 hr by broth dilution method; conditions: MTCC 1456, 24 h
Escherichia coli [3] = test: Antibacterial activity against Escherichia coli MTCC 1573 at 1000 ug/ml after 18 hr by cup-plate method; conditions: MTCC 1573, 18 h, read-out: DIZ
Aspergillus niger [4] = test: Antifungal activity against Aspergillus niger MTCC 2546 at 100 ug/ml after 18 hr by cup-plate method; conditions: MTCC 2546, 18 h, read-out: DIZ
Bacillus pumilus [5] = test: Antibacterial activity against Bacillus pumilus MTCC 1456 at 1500 ug/ml after 18 hr by cup-plate method; conditions: MTCC 1456, 18 h, read-out: DIZ
Staphylococcus aureus [6] = test: Antibacterial activity against Staphylococcus aureus MTCC 1430 after 24 hr by broth dilution method; conditions: MTCC 1430, 24 h
Penicillium chrysogenum [7] = test: Antifungal activity against Penicillium chrysogenum MTCC 161 at 1000 ug/ml after 18 hr by cup-plate method; conditions: MTCC 161, 18 h, read-out: DIZ
Escherichia coli [8] = test: Antibacterial activity against Escherichia coli MTCC 1573 at 100 ug/ml after 18 hr by cup-plate method; conditions: MTCC 1573, 18 h, read-out: DIZ
Staphylococcus aureus [9] = test: Antibacterial activity against Staphylococcus aureus MTCC 1430 at 200 ug/ml after 18 hr by cup-plate method; conditions: MTCC 1430, 18 h, read-out: DIZ
Pseudomonas aeruginosa [10] = test: Antibacterial activity against Pseudomonas aeruginosa MTCC 424 after 24 hr by broth dilution method; conditions: MTCC 424, 24 h
Pseudomonas aeruginosa [11] = test: Antibacterial activity against Pseudomonas aeruginosa MTCC 424 at 500 ug/ml after 18 hr by cup-plate method; conditions: MTCC 424, 18 h, read-out: DIZ
Aspergillus niger [12] = test: Antifungal activity against Aspergillus niger MTCC 2546 after 24 hr by broth dilution method; conditions: MTCC 2546, 24 h
Bacillus pumilus [13] = test: Antibacterial activity against Bacillus pumilus MTCC 1456 at 500 ug/ml after 18 hr by cup-plate method; conditions: MTCC 1456, 18 h, read-out: DIZ
Aspergillus niger [14] = test: Antifungal activity against Aspergillus niger MTCC 2546 at 500 ug/ml after 18 hr by cup-plate method; conditions: MTCC 2546, 18 h, read-out: DIZ
Penicillium chrysogenum [15] = test: Antifungal activity against Penicillium chrysogenum MTCC 161 at 500 ug/ml after 18 hr by cup-plate method; conditions: MTCC 161, 18 h, read-out: DIZ
Escherichia coli [16] = test: Antibacterial activity against Escherichia coli MTCC 1573 at 500 ug/ml after 18 hr by cup-plate method; conditions: MTCC 1573, 18 h, read-out: DIZ
Pseudomonas fluorescens [17] = test: Antibacterial activity against Pseudomonas fluorescens MTCC 2421 at 1000 ug/ml after 18 hr by cup-plate method; conditions: MTCC 2421, 18 h, read-out: DIZ
Micrococcus luteus [18] = test: Antibacterial activity against Micrococcus luteus MTCC 1538 after 24 hr by broth dilution method; conditions: MTCC 1538, 24 h
Staphylococcus aureus [19] = test: Antibacterial activity against Staphylococcus aureus MTCC 1430 at 100 ug/ml after 18 hr by cup-plate method; conditions: MTCC 1430, 18 h, read-out: DIZ
Aspergillus niger [20] = test: Antifungal activity against Aspergillus niger MTCC 2546 at 1000 ug/ml after 18 hr by cup-plate method; conditions: MTCC 2546, 18 h, read-out: DIZ
Aspergillus niger [21] = test: Antifungal activity against Aspergillus niger MTCC 2546 at 200 ug/ml after 18 hr by cup-plate method; conditions: MTCC 2546, 18 h, read-out: DIZ
Staphylococcus aureus [22] = test: Antibacterial activity against Staphylococcus aureus MTCC 1430 at 1000 ug/ml after 18 hr by cup-plate method; conditions: MTCC 1430, 18 h, read-out: DIZ
Bacillus subtilis [23] = test: Antibacterial activity against Bacillus subtilis MTCC 441 after 24 hr by broth dilution method; conditions: MTCC 441, 24 h
Staphylococcus aureus [24] = test: Antibacterial activity against Staphylococcus aureus MTCC 1430 at 500 ug/ml after 18 hr by cup-plate method; conditions: MTCC 1430, 18 h, read-out: DIZ
Micrococcus luteus [25] = test: Antibacterial activity against Micrococcus luteus MTCC 1538 at 200 ug/ml after 18 hr by cup-plate method; conditions: MTCC 1538, 18 h, read-out: DIZ
Bacillus subtilis [26] = test: Antibacterial activity against Bacillus subtilis MTCC 441 at 1500 ug/ml after 18 hr by cup plate method; conditions: MTCC 441, 18 h, read-out: DIZ
Pseudomonas aeruginosa [27] = test: Antibacterial activity against Pseudomonas aeruginosa MTCC 424 at 1500 ug/ml after 18 hr by cup-plate method; conditions: MTCC 424, 18 h, read-out: DIZ

Compound: O=c1c(/C=N/c2nc[nH]n2)coc2ccccc12
- MIC (Pseudomonas fluorescens [1]): 200 µg/mL (≈ 833 µM)
- MIC (Bacillus pumilus [2]): 400 µg/mL (≈ 1670 µM)
- zone of inhibition at 1000 µg/mL (Escherichia coli [3]): 16 mm
- zone of inhibition at 100 µg/mL (Aspergillus niger [4]): 16 mm
- zone of inhibition at 1500 µg/mL (Bacillus pumilus [5]): 21 mm
- MIC (Staphylococcus aureus [6]): 400 µg/mL (≈ 1670 µM)
- zone of inhibition at 1000 µg/mL (Penicillium chrysogenum [7]): 20 mm
- zone of inhibition at 100 µg/mL (Escherichia coli [8]): 13 mm
- zone of inhibition at 200 µg/mL (Staphylococcus aureus [9]): 13 mm
- MIC (Pseudomonas aeruginosa [10]): 300 µg/mL (≈ 1250 µM)
- zone of inhibition at 500 µg/mL (Pseudomonas aeruginosa [11]): 16 mm
- MIC (Aspergillus niger [12]): 200 µg/mL (≈ 833 µM)
- zone of inhibition at 500 µg/mL (Bacillus pumilus [13]): 17 mm
- zone of inhibition at 500 µg/mL (Aspergillus niger [14]): 19 mm
- zone of inhibition at 500 µg/mL (Penicillium chrysogenum [15]): 19 mm
- zone of inhibition at 500 µg/mL (Escherichia coli [16]): 15 mm
- zone of inhibition at 1000 µg/mL (Pseudomonas fluorescens [17]): 19 mm
- MIC (Micrococcus luteus [18]): 300 µg/mL (≈ 1250 µM)
- zone of inhibition at 100 µg/mL (Staphylococcus aureus [19]): 11 mm
- zone of inhibition at 1000 µg/mL (Aspergillus niger [20]): 20 mm
- zone of inhibition at 200 µg/mL (Aspergillus niger [21]): 18 mm
- zone of inhibition at 1000 µg/mL (Staphylococcus aureus [22]): 17 mm
- MIC (Bacillus subtilis [23]): 400 µg/mL (≈ 1670 µM)
- zone of inhibition at 500 µg/mL (Staphylococcus aureus [24]): 14 mm
- zone of inhibition at 200 µg/mL (Micrococcus luteus [25]): 15 mm
- zone of inhibition at 1500 µg/mL (Bacillus subtilis [26]): 20 mm
- zone of inhibition at 1500 µg/mL (Pseudomonas aeruginosa [27]): 20 mm
